Columns and labels:
PPARα = target: T1, PPARα (Homo sapiens, UniProt Q07869); assay: Gal4-transactivation luciferase assay in HEK293A cells, PPARα LBD; format: cell-based
T1 construct: pcDNA5-GAL4-PPAR LBD, pG5-luc, and Rluc vector (as control) were transfected into HEK293A cells; expressed in transfected cells; host or cells: HEK293A
T1 sequence (Q07869 239-466 limits assumed): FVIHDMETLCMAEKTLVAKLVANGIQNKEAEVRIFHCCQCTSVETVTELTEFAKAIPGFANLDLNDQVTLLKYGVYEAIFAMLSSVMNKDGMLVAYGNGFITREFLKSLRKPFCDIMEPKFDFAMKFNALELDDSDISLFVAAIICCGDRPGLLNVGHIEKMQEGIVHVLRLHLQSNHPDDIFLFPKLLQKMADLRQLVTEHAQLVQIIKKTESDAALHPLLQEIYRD
Method: (§1) HEK293A cells were transfected with the GAL4-reporter plasmids and pGL4.74 (Promega, Madison, WI, USA) as an internal standard through electroporation using a Neon Transfection System (Invitrogen, Carlsbad, CA, USA). All vector materials were provided by Professor Yuichiro Kanno at Toho University. Cells were treated with DTMB and each positive control compound for 24 h after overnight incubation. Cells were then harvested and resuspended in luciferase lysis buffer (Promega), followed by incubation on ice for 10 min. Cell debris was removed by centrifugation at 20,000 × g at 4 °C for 10 min, and the supernatants were used for luciferase assay. Using a dual-luciferase reporter assay system (Promega), luciferase activities were measured according to the manufacturer’s instructions. Experimental firefly luciferase activities were normalized against those of Renilla luciferase.

5xFAD mice [1] = assay: Western blot and qPCR of APP and β-/γ-secretase in 5xFAD brain; format: in vivo; conditions: 10 mg/kg orally, 3 months
Method: (§2) DTMB was synthesized from Daejung Chemicals (Korea) and was dissolved in dimethyl sulfoxide (Sigma Aldrich, St. Louis, MO, USA) for cell-based experiments. To evaluate the effects of DTMB on 5xFAD mice, DTMB (10 mg/kg) and vehicle (1% carboxymethylcellulose and 10% DMSO) were orally administrated to four groups (wild-type, wild-type + DTMB, 5xFAD, and 5xFAD + DTMB) with a 6 day per week for 3 months.
Cells were lysed with lysis buffer containing 50 mM Tris (pH 7.4), 140 mM NaCl, 5 mM EDTA, and a protease inhibitor tablet, followed by sonication. Lysate protein concentrations were determined using Bradford reagents (AMERSCO, MA, USA). Proteins were resolved by sodium dodecyl sulfate (SDS) polyacrylamide gel electrophoresis, transferred to nitrocellulose membranes (Pall Corporation, New York, NY, USA), and incubated with blocking buffer (5% nonfat dry milk in TBS and 0.1% Tween 20) for 30 min. […] The integrated blot density was quantified through ImageJ.
Total RNA was isolated using TRI Reagent (Molecular Research Center, Cincinnati, OH, USA). […] For detection and quantification, a StepOnePlus Real-Time PCR System (Applied Biosystems, Foster City, CA, USA) was used with FastStart Universal SYBR Green Master (Roche, Basel, Switzerland). Real-time qPCR data were analyzed using the comparative CT method. […]

5xFAD mice [2] = assay: Morris water maze in 5xFAD mice; format: in vivo; conditions: 10 mg/kg orally, 3 months
Method: as §2
A white water maze tank (120 cm diameter) was filled with water containing white non-toxic tempera paint to make the water opaque. The maze tank was divided into four quadrants, and four different visual cues were placed at each cardinal point. The water temperature was set to 20–22 °C. The Morris water maze experiment was divided into a training session, during which the mice were placed in the tank to find the platform for five consecutive days, followed by a probe test on day 6. Each mouse was trained over three trials per day and the starting quadrant was different for each trial. The duration of each training trials was 1 min and we guided the mice to the platform thereafter. In the probe test on day 6, the platform was removed, and each mouse was allowed to swim for 60 s. Target quadrant occupancy was measured automatically using a SMART v2.5 video tracking system (Panlab, TX, USA). Sample sizes were 20–25 mice per group.

PPARγ = target: T2, PPARγ (Homo sapiens, UniProt P37231); assay: Gal4-transactivation luciferase assay in HEK293A cells, PPARγ LBD; format: cell-based
T2 construct: pcDNA5-GAL4-PPAR LBD, pG5-luc, and Rluc vector (as control) were transfected into HEK293A cells; expressed in transfected cells; host or cells: HEK293A
T2 sequence (P37231 238-503 limits assumed): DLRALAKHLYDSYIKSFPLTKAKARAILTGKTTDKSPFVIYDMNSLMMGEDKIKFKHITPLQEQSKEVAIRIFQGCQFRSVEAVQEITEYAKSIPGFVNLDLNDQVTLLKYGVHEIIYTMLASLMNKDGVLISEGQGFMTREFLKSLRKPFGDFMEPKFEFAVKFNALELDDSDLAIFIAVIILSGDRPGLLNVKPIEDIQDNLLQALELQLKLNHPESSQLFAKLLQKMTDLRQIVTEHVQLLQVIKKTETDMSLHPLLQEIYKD
Method: as §1

BV2 microglia cells = assay: ELISA of proinflammatory cytokines, BV2 microglia cells; format: cell-based, mouse; conditions: LPS or pre-aggregated human Aβ1-42, 24 h
Method: We measured cytokine level (TNF-α, IL-1β, and IL-6) in the media of LPS (1 μg/mL) and human Aβ1-42 (5 μg/mL)-treated BV2 microglia cells and primary microglia. Human Aβ1-42 (AnaSpec, Fremont, CA, USA) were pre-aggregated in the incubator for 24 h before the treatment to the cells. BV2 cells and primary microglia cells were seeded on 12-well plates (SPL) at a density of 1 × 10^5 cells/well cultured in 1 mL of complete media. After 12 h, LPS or human Aβ1-42 were treated to cells and were further incubated for 24 h with DTMB. ELISA experiments were conducted by using mouse TNF-α ELISA kit (Invitrogen, BMS607-3TEN), mouse IL-1β ELISA kit (Invitrogen, BMS6002), and mouse IL-6 ELISA kit (Invitrogen, BMS603-2) according to the manufacturer’s instruction.

[3] = HEK293A, 24 h, various concentrations

relative luciferase activity (PPARα; [3]): increased luciferase activity | transactivation (luciferase activity) compared to positive control (PPARα; versus WY14643): stronger than the positive control | relative luciferase activity (PPARγ; [3]): increased luciferase activity | PPARγ transactivation (luciferase reporter activity) compared to positive control (PPARγ; versus positive control): lower than the positive controls
SMILES: COc1ccc(-c2cc(=O)oc3c(C)c(OC(=O)[C@H](Cc4c[nH]c5ccccc45)NC(=O)OC(C)(C)C)ccc23)cc1 [DTMB]
protein level of β-secretase (5xFAD mice [1]; cortex): slightly decreased | APP protein and mRNA level (5xFAD mice [1]; hippocampus): neither changes | target quadrant occupancy (probe test, day 6) (5xFAD mice [2]): markedly improved | level of cytokines (TNF-α, IL-1β, IL-6) induced by inflammatory signals (BV2 microglia cells): dramatically reduced
